According to patent US9370587B2, “Coloring substance for diagnostic ophtalmologic use” (IROS R.C. S.r.l., priority 2012, dated 2016):
Entries after “also recorded” stand apart in the source; their conditions may differ.

Legend:
[1] = Tolerability of topical use on the eye; format: in vivo, human; settings: topical ocular use
[2] = tested on: epithelial cells; test: Staining behaviour on tear film and corneal epithelial cells

penetration into cells [2]: does not penetrate into the cells
Structure (SMILES): Cc1cc2nc3c(=O)[nH]c(=O)nc-3n(C[C@H](O)[C@H](O)[C@H](O)CO)c2cc1C [riboflavin]
harmfulness / side effects on the eye [1]: not harmful to the human eye; also recorded: side no effects; also recorded: absence of toxic effects on the corneal epithelium
